Patent US8030071B2, “Restoration of cholesterol independence and its use as a selectable marker in NS0 cell culture” (priority 2005, dated 2011)

Key:
NS0 cells [1] = assay: Growth response of NS0 cells in 24-well plates to cholesterol biosynthesis precursors/intermediates; format: cell-based, mouse; conditions: cholesterol-free CD Hybridoma medium, 4 mg/ml fatty acid-free BSA, three concentrations per precursor
Protocol: Cells and cell culture. […] Growth response of NS0 cells to various cholesterol biosynthesis pathway precursors and intermediates was studied in CD Hybridoma medium (Invitrogen, Carlsbad, Calif., USA) without cholesterol-lipid concentrate. […] Each well containing 1.5 ml precursor-supplemented medium was seeded with 2×10^5 cells/ml. NS0 cells cultured in the presence of cholesterol served as the positive control. Different intermediates were dissolved in 100% ethanol and added to the culture medium along with 4 mg/ml fatty acid-free BSA (Sigma, St. Louis, Mo., USA). […] All test conditions were performed in duplicate. The medium was supplemented with 4 mg/ml fatty acid-free BSA.

NS0 cells [2] = assay: Growth kinetics of NS0 cells in tissue culture flasks with sterol supplement; format: cell-based, mouse; conditions: 5.0 μg/ml sterol, 4 mg/ml fatty acid-free BSA; for growth of NS0 cells supported: tissue culture flasks; for maximum cell density: after 70 hrs in culture
Protocol: The medium in all four flasks was supplemented with 4 mg/ml fatty acid-free BSA.
Cells and cell culture. NS0 and NS0_r, the cholesterol independent revertant, were obtained from Pfizer, Inc. (St. Louis, Mo.) and have been described previously (Seth et al., Biotechnol Bioeng, 90:552-67, 2005). Growth response of NS0 cells to various cholesterol biosynthesis pathway precursors and intermediates was studied in CD Hybridoma medium (Invitrogen, Carlsbad, Calif., USA) without cholesterol-lipid concentrate. […] Each well containing 1.5 ml precursor-supplemented medium was seeded with 2×10^5 cells/ml. NS0 cells cultured in the presence of cholesterol served as the positive control. Different intermediates were dissolved in 100% ethanol and added to the culture medium along with 4 mg/ml fatty acid-free BSA (Sigma, St. Louis, Mo., USA). […] Citric acid anhydrous, mevalonolactone, squalene, lanosterol, lathosterol, 7-dehydrocholesterol and cholesterol powder were purchased from Sigma (St. Louis, Mo., USA). All test conditions were performed in duplicate. The medium was supplemented with 4 mg/ml fatty acid-free BSA. Presence of BSA facilitates uptake of the sterol precursors (Sato et al., Mol Biol Med, 2, 121-34:1984).
In order to verify the block between lanosterol and lathosterol in the cholesterol biosynthetic pathway, growth kinetics of NS0 cells in the presence of lanosterol (5.0 μg/ml), lathosterol (5.0 μg/ml) and cholesterol (5.0 μg/ml) were determined. Cells were also grown in basal medium supplemented with fatty acid-free BSA only (FIG. 2b). […] Cells attained a maximum cell density of 4×10^6 cells/ml after 70 hrs in culture with lathosterol, compared to 3×10^6 cells/ml in medium supplemented with cholesterol. These observations were consistent over repeated cultures. The results support the notion that the block between lanosterol and lathosterol in the biosynthesis of cholesterol in NS0 is at least partly responsible for cholesterol auxotrophy in this cell line.

NS0 cells [3] = assay: 5-azacytidine treatment and limiting dilution plating for cholesterol independent clones; format: cell-based, mouse
Protocol: Treatment with 5-azacytidine (5azaC) and isolation of cholesterol independent clones. NS0 cells at 200,000 cells/ml were treated with 5azaC (1 μM and 5 μM) in tissue culture flasks. After 48 hrs, the cells were washed and limiting dilution plating was carried out in 10 96-well plates at a dilution of 2,000 cells/well using CD Hybridoma medium without cholesterol supplement. Untreated NS0 cells were also plated in cholesterol-free medium as a control for background cholesterol independent variants in the cell population. The plates were incubated at 5% CO2, 37° C. and saturated humidity for 1-2 weeks.
5azaC treated cells were aliquoted into 96-well cell culture plates containing cholesterol-free medium. […] Single cell colonies were isolated from the 96-well culture plates and expanded to tissue culture flasks for further characterization.

Hsd17b7 = Hsd17b7 transcription after 5-azacytidine treatment (real-time PCR); format: cell-based, mouse; conditions: NS0 cells treated with 5-azacytidine
Protocol: Reverse Transcription and Real-time comparative quantitative PCR. Total RNA was extracted from cells in exponential growth phase using the RNeasy Mini Kit (Qiagen, Valencia, Calif., USA), followed by reverse transcription with Superscript™ II RNase H^− Reverse Transcriptase (Invitrogen). For real-time comparative PCR analysis, samples were prepared using QuantiTect SYBR Green PCR kit (Qiagen) and reactions run on ABI 7700 (Applied Biosystems, Foster City, Calif., USA). Samples were analyzed in duplicates and β-actin was used as the normalization message. The fold change was calculated using the comparative CT method.

other systems = conditions: baseline spontaneous reactivation frequency of 10^−5 or less (Holliday et al.); cited from earlier work

SMILES | growth of NS0 cells supported by precursor/intermediate (NS0 cells [1]) | growth of NS0 cells supported (NS0 cells [2]) | maximum cell density (NS0 cells [2]) | also measured
CC(C)=CCC[C@@H](C)[C@H]1CC[C@@]2(C)C3=C(CC[C@]12C)[C@@]1(C)CC[C@H](O)C(C)(C)[C@@H]1CC3 [lanosterol] | Growth was not supported | unable to support the growth of NS0 cells | – | –
Nc1ncn([C@@H]2O[C@H](CO)[C@@H](O)[C@H]2O)c(=O)n1 [5azaC, 5-azacytidine] | – | – | – | reversion rate to cholesterol independence (NS0 cells [3]; 1 μM 5azaC): less than 1×10^−6; Survival frequency of wells in a 96-well plate culture (NS0 cells [3]; 5 μM 5azaC, 2,000 cells/well, cholesterol-free medium): ~80 % of wells; cholesterol revertants after exposure (NS0 cells [3]; 5 μM 5azaC, 48 hrs, then cholesterol-free medium): many cholesterol revertants; transcriptional repression of Hsd17b7 (Hsd17b7): relieved; reactivated cells (other systems): 10-30%
CC(C)=CCC/C(C)=C/CC/C(C)=C/CC/C=C(\C)CC/C=C(\C)CCC=C(C)C [squalene] | Growth was not supported | – | – | –
C[C@@]1(O)CCOC(=O)C1 [mevalonolactone] | Growth was not supported | – | – | –
CC(C)CCC[C@@H](C)[C@H]1CC[C@H]2[C@@H]3CC=C4C[C@@H](O)CC[C@]4(C)[C@H]3CC[C@]12C [cholesterol] | – | – | 3×10^6 cells/ml | –
CC(C)CCC[C@@H](C)[C@H]1CC[C@H]2C3=CC[C@H]4C[C@@H](O)CC[C@]4(C)[C@H]3CC[C@]12C [lathosterol] | able to support the growth of cells | effective in promoting the growth of NS0 cells | 4×10^6 cells/ml | –
